Drawing on PMC6197744, “Triazolo[4,5-d]pyrimidines as Validated General Control Nonderepressible 2 (GCN2) Protein Kinase Inhibitors Reduce Growth of Leukemia Cells” (Computational and Structural Biotechnology Journal, 2018), this text covers inhibition, Papp and IC50 for two molecules.

Series [1] deals with T1, PERK (Homo sapiens, UniProt Q9NZJ5).
T1 construct: purchased Reaction Biology Corporation (Malvern, PA)
T1 sequence (Q9NZJ5 30-1116): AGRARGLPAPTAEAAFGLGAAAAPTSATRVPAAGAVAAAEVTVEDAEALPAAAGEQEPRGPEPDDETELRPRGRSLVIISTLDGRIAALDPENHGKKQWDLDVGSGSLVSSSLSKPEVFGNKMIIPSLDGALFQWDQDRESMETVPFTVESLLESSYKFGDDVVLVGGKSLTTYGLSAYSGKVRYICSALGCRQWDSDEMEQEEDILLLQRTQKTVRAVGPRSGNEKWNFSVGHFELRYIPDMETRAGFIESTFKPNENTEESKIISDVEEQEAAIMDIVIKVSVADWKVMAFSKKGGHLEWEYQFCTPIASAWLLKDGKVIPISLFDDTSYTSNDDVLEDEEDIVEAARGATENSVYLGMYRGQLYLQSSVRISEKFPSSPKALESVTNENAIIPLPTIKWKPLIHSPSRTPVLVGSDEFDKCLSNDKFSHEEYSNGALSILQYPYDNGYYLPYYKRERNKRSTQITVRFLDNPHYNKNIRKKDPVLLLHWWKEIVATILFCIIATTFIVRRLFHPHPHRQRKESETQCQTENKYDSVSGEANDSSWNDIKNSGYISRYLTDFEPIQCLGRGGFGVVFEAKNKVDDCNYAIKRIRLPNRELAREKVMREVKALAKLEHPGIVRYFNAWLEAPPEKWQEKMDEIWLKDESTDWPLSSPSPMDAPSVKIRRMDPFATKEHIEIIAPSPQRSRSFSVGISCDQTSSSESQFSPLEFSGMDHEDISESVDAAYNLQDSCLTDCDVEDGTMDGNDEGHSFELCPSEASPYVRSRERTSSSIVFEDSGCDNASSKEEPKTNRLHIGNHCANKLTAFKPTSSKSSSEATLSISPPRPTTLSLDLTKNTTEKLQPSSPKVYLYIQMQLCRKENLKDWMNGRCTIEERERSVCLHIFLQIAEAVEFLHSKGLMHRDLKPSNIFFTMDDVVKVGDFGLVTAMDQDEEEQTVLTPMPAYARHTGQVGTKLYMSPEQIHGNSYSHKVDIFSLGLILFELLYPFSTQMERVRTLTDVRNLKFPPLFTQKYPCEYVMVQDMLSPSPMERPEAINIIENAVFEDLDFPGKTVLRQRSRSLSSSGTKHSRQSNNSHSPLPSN
Briefly: radiometric HotSpot kinase assay. The class given is biochemical. The conditions noted are these: 10 μM compound, 10 μM ATP; read-out: % Enzyme inhibition at 10 μM, PERK. The protocol: In vitro compound profiling for recombinant GCN2, PERK, HRI, PKR, or IRE1 kinases were performed at Reaction Biology Corporation (Malvern, PA) using the HotSpot kinase assay. Briefly, all compounds provided for testing were dissolved in 10 mM DMSO stock solutions. […] Specific kinase/substrate mixtures and required cofactors were prepared in reaction buffer (20 mM Hepes (pH 7.5), 10 mM MgCl2, 1 mM EGTA, 0.02% Brij35, 0.02 mg/ml BSA, 0.1 mM Na3VO4, 2 mM DTT, 1% DMSO). Compounds were added to the kinase reaction mixture by Acoustic technology (Echo550; nanoliter range) and incubated for 20 min at room temperature. […] The reaction was incubated or 2 h at room temperature and kinase activity was detected by filter-binding method. IC50 values and curves were generated with GraphPad Prism 7 (GraphPad software).

Series [2] in a line: Permeability assay (PAMPA). The class given is in vitro ADME. The settings on record: pH 7.4, 25 °C, <10 low, >10 high permeability. As for the experimental part:
GCN2 compound permeability was determined by PAMPA and was performed by Pharmaron, Inc. (Beijing, China). All compounds and control stock solutions were prepared in DMSO at a concentration of 10 mM. Testosterone and methotrexate were used as control compounds. Compound stock solutions were diluted with PBS (pH 7.4) to a final concentration of 10 μM. A 1.8% solution (w/v) of lecithin in dodecane was prepared and sonicated to ensure a complete dissolution. 5 μL of the lecithin/dodecane mixture were pipetted into each acceptor plate well (top compartment). Immediately after the application of the artificial membrane (within 10 min), 300 μL of PBS (pH 7.4) solution were added to each well of the acceptor plate. 300 μL of drug-containing solutions were added to each well of the donor plate (bottom compartment) in triplicate. The plate lid was replaced and incubated at 25 °C, 60 rpm for 16 h. After incubation, aliquots of 50 μL from each well of acceptor and donor plate were transferred into a 96-well plate and 200 μL of methanol (containing IS: 100 nM Alprazolam, 200 nM Labetalol and 2 μM Ketoprofen) was added to each well. The plate was vortexed at 750 rpm for 100 s. Samples were centrifuged at 3220g for 20 min. The compound concentrations were determined by LC/MS/MS. The effective permeability (Pe), in units of centimeter per second were calculated using the following equation: logPe=logC×−ln1−drugacceptor/drugequilibrium
In general terms: PAMPA measures passive passage across an artificial lipid membrane.

Series [3] has as its target T2, IRE1 (Homo sapiens, UniProt O75460).
T2 construct: purchased Reaction Biology Corporation (Malvern, PA)
Briefly: radiometric HotSpot kinase assay. The settings on record: 10 μM compound, 10 μM ATP; read-out: % Enzyme inhibition at 10 μM, IRE1. The class given is biochemical. The protocol:
(§1) Compounds 1–9 were screened in a radiometric […] kinase assay against human GCN2 and other kinases involved in the UPR and ISR pathways (Table 1). […] The most soluble of the potent tool compounds (1 and 2) were selected for in vitro cell-based assays where the phosphorylation of eIF2α (p-eIF2α) was used as a readout for GCN2 inhibition.
(§2) In vitro compound profiling for recombinant GCN2, PERK, HRI, PKR, or IRE1 kinases were performed at Reaction Biology Corporation (Malvern, PA) using the HotSpot kinase assay. Briefly, all compounds provided for testing were dissolved in 10 mM DMSO stock solutions. Serial dilutions were conducted by epMotion 5070 in DMSO. Specific kinase/substrate mixtures and required cofactors were prepared in reaction buffer (20 mM Hepes (pH 7.5), 10 mM MgCl2, 1 mM EGTA, 0.02% Brij35, 0.02 mg/ml BSA, 0.1 mM Na3VO4, 2 mM DTT, 1% DMSO). Compounds were added to the kinase reaction mixture by Acoustic technology (Echo550; nanoliter range) and incubated for 20 min at room temperature. The kinase reaction was initiated by adding ^33P ATP to a final concentration of 10 μM for single point kinase activity reading or to the ATP Km of GCN2 for IC50 readings. The reaction was incubated or 2 h at room temperature and kinase activity was detected by filter-binding method. IC50 values and curves were generated with GraphPad Prism 7 (GraphPad software).

Series [4] addresses T3, HRI (Homo sapiens, UniProt Q9BQI3).
T3 construct: purchased Reaction Biology Corporation (Malvern, PA)
Briefly: radiometric HotSpot kinase assay. The conditions noted are these: 10 μM compound, 10 μM ATP; read-out: % Enzyme inhibition at 10 μM, HRI. Format: biochemical. As for the experimental part:
as §1, §2

In series [5] the target is T4, PKR (Homo sapiens, UniProt P19525).
T4 construct: purchased Reaction Biology Corporation (Malvern, PA)
Briefly: radiometric HotSpot kinase assay. Format: biochemical. The conditions noted are these: for inhibition at 10 µM: 10 μM compound, 10 μM ATP, read-out: % Enzyme inhibition at 10 μM, PKR; for IC50: means of two independent experiments. As for the experimental part:
as §1, §2

The structures appear in SMILES notation.

T4 sequence (P19525 whole entry): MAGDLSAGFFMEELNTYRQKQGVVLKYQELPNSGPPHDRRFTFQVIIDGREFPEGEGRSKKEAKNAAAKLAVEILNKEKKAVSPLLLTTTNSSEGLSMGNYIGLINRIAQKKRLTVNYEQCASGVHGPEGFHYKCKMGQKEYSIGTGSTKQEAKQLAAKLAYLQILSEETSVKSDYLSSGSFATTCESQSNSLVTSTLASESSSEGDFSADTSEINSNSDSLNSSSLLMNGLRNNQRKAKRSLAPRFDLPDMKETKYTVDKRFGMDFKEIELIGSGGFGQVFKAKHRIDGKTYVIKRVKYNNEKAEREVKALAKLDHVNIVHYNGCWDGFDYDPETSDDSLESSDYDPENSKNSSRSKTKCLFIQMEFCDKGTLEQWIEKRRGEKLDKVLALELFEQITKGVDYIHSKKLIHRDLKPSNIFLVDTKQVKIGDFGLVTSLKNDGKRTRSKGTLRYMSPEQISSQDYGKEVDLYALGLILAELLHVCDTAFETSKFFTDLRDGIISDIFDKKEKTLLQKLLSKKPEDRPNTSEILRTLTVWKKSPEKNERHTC
T2 sequence (O75460 19-977): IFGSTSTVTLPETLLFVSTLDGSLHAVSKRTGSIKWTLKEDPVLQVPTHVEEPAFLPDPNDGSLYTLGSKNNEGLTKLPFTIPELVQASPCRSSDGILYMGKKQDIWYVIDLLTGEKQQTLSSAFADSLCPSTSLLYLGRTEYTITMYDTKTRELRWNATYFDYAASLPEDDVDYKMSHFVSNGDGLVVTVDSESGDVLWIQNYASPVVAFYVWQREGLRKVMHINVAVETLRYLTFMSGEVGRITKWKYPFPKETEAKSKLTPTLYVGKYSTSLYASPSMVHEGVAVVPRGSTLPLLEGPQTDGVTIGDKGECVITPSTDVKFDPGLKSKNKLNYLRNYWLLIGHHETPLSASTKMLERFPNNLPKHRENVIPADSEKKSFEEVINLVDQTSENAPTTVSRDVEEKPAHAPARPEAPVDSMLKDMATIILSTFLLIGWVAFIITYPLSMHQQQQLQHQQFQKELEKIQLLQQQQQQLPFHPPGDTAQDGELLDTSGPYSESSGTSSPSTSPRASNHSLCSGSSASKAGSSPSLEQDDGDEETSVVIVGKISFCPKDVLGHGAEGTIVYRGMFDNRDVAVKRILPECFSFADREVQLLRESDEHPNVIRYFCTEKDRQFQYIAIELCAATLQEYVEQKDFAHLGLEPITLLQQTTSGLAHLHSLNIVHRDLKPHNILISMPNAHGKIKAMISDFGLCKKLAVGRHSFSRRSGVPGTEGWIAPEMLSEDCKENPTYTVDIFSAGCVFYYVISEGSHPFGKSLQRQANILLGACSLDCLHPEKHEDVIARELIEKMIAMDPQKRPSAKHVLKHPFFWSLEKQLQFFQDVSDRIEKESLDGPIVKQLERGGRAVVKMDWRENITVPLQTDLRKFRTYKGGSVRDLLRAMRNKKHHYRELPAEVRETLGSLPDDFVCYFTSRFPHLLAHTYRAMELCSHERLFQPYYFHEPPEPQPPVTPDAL
T3 sequence (Q9BQI3 whole entry): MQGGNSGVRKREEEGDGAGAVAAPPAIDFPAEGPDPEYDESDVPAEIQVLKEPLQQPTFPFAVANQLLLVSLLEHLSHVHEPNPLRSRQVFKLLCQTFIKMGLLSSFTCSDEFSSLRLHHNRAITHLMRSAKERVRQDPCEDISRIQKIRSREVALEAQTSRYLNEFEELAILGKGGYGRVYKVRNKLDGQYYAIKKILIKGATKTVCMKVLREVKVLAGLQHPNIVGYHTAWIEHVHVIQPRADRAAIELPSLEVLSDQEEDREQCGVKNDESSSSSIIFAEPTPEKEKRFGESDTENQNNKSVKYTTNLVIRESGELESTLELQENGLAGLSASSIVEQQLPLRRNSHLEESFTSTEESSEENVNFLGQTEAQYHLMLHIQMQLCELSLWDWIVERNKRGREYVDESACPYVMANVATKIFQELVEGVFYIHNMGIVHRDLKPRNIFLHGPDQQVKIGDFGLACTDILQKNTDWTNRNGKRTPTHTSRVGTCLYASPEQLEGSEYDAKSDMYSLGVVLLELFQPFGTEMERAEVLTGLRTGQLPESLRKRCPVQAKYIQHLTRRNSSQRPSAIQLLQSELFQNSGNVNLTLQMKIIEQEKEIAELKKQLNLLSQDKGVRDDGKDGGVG

Regarding `CCn1cc(Nc2ncc3nnn(-c4ccc(C(=O)OC)cc4)c3n2)cn1` [Compound 1, Methyl 4-(5-((1-ethyl-1H-pyrazol-4-yl)amino)-3H-[1,2,3]triazolo[4,5-d]pyrimidin-3-yl)benzoate], the inhibition (usually the change of the read-out against control, counted positive when it falls) at 10 µM came out at 24% in series [1], 37% in series [3], 14% in series [4] and 93% in series [5]. In addition, in series [2], the apparent permeability coefficient (Papp) (commonly a coefficient for how fast a substance crosses the barrier) at 16 h, 10 μM was found to be 16 ×10⁻⁶ cm/s. Further, half-maximal inhibition in series [5] (IC50) required 119 nM.

Consider `CCOc1ccc(-n2nnc3cnc(Nc4cnn(CC)c4)nc32)cc1` [Compound 2, 3-(4-Ethoxyphenyl)-N-(1-ethyl-1H-pyrazol-4-yl)-3H-[1,2,3]triazolo[4,5-d]pyrimidin-5-amine], for which the inhibition at 10 µM in series [1] was less than 10%; in series [3] it was 20%; in series [4], less than 10%; in series [5], 99%. Also, the Papp at 16 h, 10 μM in series [2] was 15.1 ×10⁻⁶ cm/s. The IC50 – broadly, the concentration at which inhibition is half-maximal – in series [5] is 39.9 nM.
